EC50 and logD data for 14 compounds are collected here from ChEMBL document CHEMBL3407472, “Multi-parameter optimization of aza-follow-ups to BI 207524, a thumb pocket 1 HCV NS5B polymerase inhibitor. Part 2: Impact of lipophilicity on promiscuity and in vivo toxicity” (Bioorg Med Chem Lett, 2015).

Some results are limits rather than exact numbers.

Usually EC50 stands for the midpoint of the concentration-response curve. Broadly, the logD is the decadic logarithm of the distribution of all forms, ionised or not, between an organic phase and buffer at a given pH. High values mean higher lipophilicity, low ones lower lipophilicity.

One series deals with Hepatitis C virus. As to the kind of experiment: Antiviral activity against Hepatitis C virus genotype 1b infected in human Huh cells assessed as inhibition of viral replication by RT-PCR-based replicon assay.
Settings: not given
Format: functional, cell-based, Hepacivirus hominis. On the technique in general: A replicon is a self-replicating genome or part of one, used to study replication in cells.
With `CCOc1nc(NC(=O)C(C)(C)NC(=O)c2ccc3c(C4CCCC4)c(-c4ncc(Br)cn4)n(C)c3c2)ccc1/C=C/C(=O)O`, the EC50 turned out to be 5 nM.
The same measure, in the same setting: for `CCOc1nc(NC(=O)C(C)(C)NC(=O)c2ccc3c(c2)c(C)c(-c2ccc(F)cn2)n3C2CCCCC2)ccc1/C=C/C(=O)O` the value was 3 nM; for `CCOc1nc(NC(=O)C(C)(C)NC(=O)c2ccc3c(C4CCCC4)c(-c4ncc(Br)cn4)n(C)c3c2)cnc1/C=C/C(=O)O`, 14 nM.
Take `CCOc1nc(NC(=O)C2(NC(=O)c3ccc4c(C5CCCC5)c(-c5ncc(Cl)cn5)n(C)c4c3)CCCC2)ccc1/C=C/C(=O)O`: the EC50 worked out at 3 nM.
Consider `CCOc1nc(NC(=O)C2(NC(=O)c3ccc4c(C5CCCC5)c(-c5ncc(Cl)cn5)n(C)c4c3)CCCC2)cnc1/C=C/C(=O)O`, for which the EC50 was determined as 6 nM.
Consider `COc1nc(NC(=O)C2(NC(=O)c3ccc4c(C5CCCC5)c(-c5ncc(Cl)cn5)n(C)c4c3)CCC2)ccc1/C=C/C(=O)O`, for which the EC50 worked out at 9 nM.
On to `COc1nc(NC(=O)C2(NC(=O)c3ccc4c(C5CCCC5)c(-c5ccc(F)cn5)n(C)c4c3)CCC2)ccc1/C=C/C(=O)O`, for which the EC50 stood at 12 nM.
Still for that read-out and setting: then `COc1nc(NC(=O)C2(NC(=O)c3ccc4c(C5CCCC5)c(-c5cnccn5)n(C)c4c3)CCC2)ccc1/C=C/C(=O)O`, with 13 nM.
Still for that read-out and setting: then `COc1nc(NC(=O)C2(NC(=O)c3ccc4c(c3)c(C)c(-c3ccc(F)cn3)n4C3CCCCC3)CCC2)ccc1/C=C/C(=O)O`, with 10 nM.
Same read-out and setting: for `COc1nc(NC(=O)C2(NC(=O)c3ccc4c(c3)c(C)c(-c3ccc(F)cn3)n4C3CCCCC3)CCC2)cnc1/C=C/C(=O)O` the value was 17 nM; for `COc1nc(NC(=O)C(C)(C)NC(=O)c2ccc3c(C4CCCC4)c(-c4ccc(F)cn4)n(C)c3c2)ccc1/C=C/C(=O)O`, 12 nM.
As for `COc1nc(NC(=O)C(C)(C)NC(=O)c2ccc3c(C4CCCC4)c(-c4cncnc4)n(C)c3c2)ccc1/C=C/C(=O)O`, the EC50 turned out to be 23 nM.
On the same count and under the same terms, for `COc1nc(NC(=O)C(C)(C)NC(=O)c2ccc3c(C4CCCC4)c(-c4ncc(Cl)cn4)n(C)c3c2)cnc1/C=C/C(=O)O` the value was 17 nM.
On the same count and under the same terms, then `COc1nc(NC(=O)C2(NC(=O)c3ccc4c(c3)c(C)c(-c3ccc(F)cn3)n4C3CCCCC3)CCCC2)cnc1/C=C/C(=O)O`, with 14 nM.

Tested on in another series: not listed separately
As to the kind of experiment: Lipophilicity, log D of the compound at pH 7.4. The class given is physicochemical. The note with it: buffer.
As to `CCOc1nc(NC(=O)C(C)(C)NC(=O)c2ccc3c(C4CCCC4)c(-c4ncc(Br)cn4)n(C)c3c2)ccc1/C=C/C(=O)O`, the logD was over 4.7.
Compound `CCOc1nc(NC(=O)C(C)(C)NC(=O)c2ccc3c(c2)c(C)c(-c2ccc(F)cn2)n3C2CCCCC2)ccc1/C=C/C(=O)O` gave a logD of 3.9.
With `CCOc1nc(NC(=O)C(C)(C)NC(=O)c2ccc3c(C4CCCC4)c(-c4ncc(Br)cn4)n(C)c3c2)cnc1/C=C/C(=O)O`, the pH-dependent lipophilicity (logD) amounted to 3.4.
The same measure, in the same setting: for `CCOc1nc(NC(=O)C2(NC(=O)c3ccc4c(C5CCCC5)c(-c5ncc(Cl)cn5)n(C)c4c3)CCCC2)ccc1/C=C/C(=O)O` the value was over 6.2.
In turn, `CCOc1nc(NC(=O)C2(NC(=O)c3ccc4c(C5CCCC5)c(-c5ncc(Cl)cn5)n(C)c4c3)CCCC2)cnc1/C=C/C(=O)O` registered a logD of 4.3.
Regarding `COc1nc(NC(=O)C2(NC(=O)c3ccc4c(C5CCCC5)c(-c5ncc(Cl)cn5)n(C)c4c3)CCC2)ccc1/C=C/C(=O)O`, the logD turned out to be 3.7.
As for `COc1nc(NC(=O)C2(NC(=O)c3ccc4c(C5CCCC5)c(-c5ccc(F)cn5)n(C)c4c3)CCC2)ccc1/C=C/C(=O)O`, the logD is 4.
On the same count and under the same terms, for `COc1nc(NC(=O)C2(NC(=O)c3ccc4c(C5CCCC5)c(-c5cnccn5)n(C)c4c3)CCC2)ccc1/C=C/C(=O)O` the value was 3.3.
Same read-out and setting: for `COc1nc(NC(=O)C2(NC(=O)c3ccc4c(c3)c(C)c(-c3ccc(F)cn3)n4C3CCCCC3)CCC2)ccc1/C=C/C(=O)O` the value was 4.2; for `COc1nc(NC(=O)C2(NC(=O)c3ccc4c(c3)c(C)c(-c3ccc(F)cn3)n4C3CCCCC3)CCC2)cnc1/C=C/C(=O)O`, 3.3; for `COc1nc(NC(=O)C(C)(C)NC(=O)c2ccc3c(C4CCCC4)c(-c4ccc(F)cn4)n(C)c3c2)ccc1/C=C/C(=O)O`, 3.3.
In turn, `COc1nc(NC(=O)C(C)(C)NC(=O)c2ccc3c(C4CCCC4)c(-c4cncnc4)n(C)c3c2)ccc1/C=C/C(=O)O` had a logD of 2.2.
In the case of `COc1nc(NC(=O)C(C)(C)NC(=O)c2ccc3c(C4CCCC4)c(-c4ncc(Cl)cn4)n(C)c3c2)cnc1/C=C/C(=O)O`, the logD was found to be 2.6.
Still for that read-out and setting: for `COc1nc(NC(=O)C2(NC(=O)c3ccc4c(c3)c(C)c(-c3ccc(F)cn3)n4C3CCCCC3)CCCC2)cnc1/C=C/C(=O)O` the value was 3.2.

Another series concerns Hepatitis C virus. As to the kind of experiment: Antiviral activity against Hepatitis C virus genotype 1a infected in human Huh cells assessed as inhibition of viral replication by RT-PCR-based replicon assay. Format: functional, cell-based, Hepacivirus hominis. The note with it: subtype 1a.
On to `CCOc1nc(NC(=O)C(C)(C)NC(=O)c2ccc3c(C4CCCC4)c(-c4ncc(Br)cn4)n(C)c3c2)ccc1/C=C/C(=O)O`, for which the concentration giving a half-maximal response (EC50) was 8 nM.
Consider `CCOc1nc(NC(=O)C(C)(C)NC(=O)c2ccc3c(c2)c(C)c(-c2ccc(F)cn2)n3C2CCCCC2)ccc1/C=C/C(=O)O`, for which the EC50 was determined as 14 nM.
Same read-out and setting: then `CCOc1nc(NC(=O)C(C)(C)NC(=O)c2ccc3c(C4CCCC4)c(-c4ncc(Br)cn4)n(C)c3c2)cnc1/C=C/C(=O)O`, with 67 nM; and `CCOc1nc(NC(=O)C2(NC(=O)c3ccc4c(C5CCCC5)c(-c5ncc(Cl)cn5)n(C)c4c3)CCCC2)ccc1/C=C/C(=O)O`, with 14 nM; and `CCOc1nc(NC(=O)C2(NC(=O)c3ccc4c(C5CCCC5)c(-c5ncc(Cl)cn5)n(C)c4c3)CCCC2)cnc1/C=C/C(=O)O`, with 27 nM.
Regarding `COc1nc(NC(=O)C2(NC(=O)c3ccc4c(C5CCCC5)c(-c5ncc(Cl)cn5)n(C)c4c3)CCC2)ccc1/C=C/C(=O)O`, the EC50 was 62 nM.
Consider `COc1nc(NC(=O)C2(NC(=O)c3ccc4c(C5CCCC5)c(-c5ccc(F)cn5)n(C)c4c3)CCC2)ccc1/C=C/C(=O)O`, for which the EC50 was 68 nM.
For `COc1nc(NC(=O)C2(NC(=O)c3ccc4c(C5CCCC5)c(-c5cnccn5)n(C)c4c3)CCC2)ccc1/C=C/C(=O)O`, the 50% effective concentration (EC50) was 46 nM.
Same read-out and setting: for `COc1nc(NC(=O)C2(NC(=O)c3ccc4c(c3)c(C)c(-c3ccc(F)cn3)n4C3CCCCC3)CCC2)ccc1/C=C/C(=O)O` the value was 52 nM; for `COc1nc(NC(=O)C2(NC(=O)c3ccc4c(c3)c(C)c(-c3ccc(F)cn3)n4C3CCCCC3)CCC2)cnc1/C=C/C(=O)O`, 310 nM; for `COc1nc(NC(=O)C(C)(C)NC(=O)c2ccc3c(C4CCCC4)c(-c4ccc(F)cn4)n(C)c3c2)ccc1/C=C/C(=O)O`, 67 nM.
Same read-out and setting: for `COc1nc(NC(=O)C(C)(C)NC(=O)c2ccc3c(C4CCCC4)c(-c4cncnc4)n(C)c3c2)ccc1/C=C/C(=O)O` the value was 72 nM; for `COc1nc(NC(=O)C(C)(C)NC(=O)c2ccc3c(C4CCCC4)c(-c4ncc(Cl)cn4)n(C)c3c2)cnc1/C=C/C(=O)O`, 270 nM; for `COc1nc(NC(=O)C2(NC(=O)c3ccc4c(c3)c(C)c(-c3ccc(F)cn3)n4C3CCCCC3)CCCC2)cnc1/C=C/C(=O)O`, 54 nM.
